The values that follow come from patent publication US20090209457A1, “TREATMENT OF ANTI-ERYTHROPOIETIN ANTIBODY-MEDIATED DISORDERS WITH SYNTHETIC PEPTIDE-BASED EPO RECEPTOR AGONISTS” (Affymax, Inc., priority 2008, published 2009).

“Also recorded” adds a separate entry of the source. Bridge positions count the residues as written; N and C are the ends. Square brackets hold non-standard residues; d marks the D form. Ends that are not written are not given here. 1Nal = N[C@@H](Cc1cccc2ccccc12)C(=O)O; Sar = CNCC(=O)O

One data set has as its system rat model of PRCA. In words: Rat model of PRCA (anti-EPO antibody-induced anemia). The class given is in vivo. The procedure:
The efficacy of Peptide I to correct anemia due to recombinant EPO anti-body induced PRCA was assessed in a rat model of PRCA. […] The rat model of PRCA consisted of induction of anti-EPO antibodies in a rat to yield a model of PRCA. Subsequent to inducing PRCA in rats, the erythropoietic activity of Peptide I, compared to rats treated with recombinant EPO, was evaluated in the rat model of PRCA following weekly administrations of Peptide I or recombinant EPO.
Additionally, administration of Peptide I to rats positive for anti-EPO antibodies allowed evaluation of Peptide I to correct PRCA-induced anemia.
Experiments were also conducted in anemic anti-EPO antibody positive rats to determine if normal hemoglobin levels could be maintained. The anemic anti-EPO antibody positive rats were treated with Peptide I approximately every 4 weeks for a total of additional seven injections. Hemoglobin levels in the Peptide I and vehicle-treated antibody-positive rats were compared to concurrent controls.
EPO-induced PRCA in humans and rats characterized by severe anemia associated with the presence of anti-EPO antibodies, an absence of reticulocytes, and limited bone marrow erythroid precursors with concomitant presence of normal numbers of granulocytic and megakaryocytic lineages. Peptide I corrected the EPO-induced anemia in these animals.

Data set [1] relates to bone marrow cultures established from healthy human donors. The data set is described as follows: Bone marrow cultures with patient serum (erythroid colonies). Format: cell-based. How it is done:
(§1) The anti-Peptide I antibody assay was performed in the laboratories of the Sponsor using an ELISA method, with a sensitivity of 300 ng/mL [Fan Q., et al. (2006) Exp. Hematol. 34: 1303-11; Woodburn K W, et al. (2007) Exp. Hematol. 35: 1201-8]. Anti-EPO antibodies were measured by radioimmune precipitation assay. To confirm that the patient's antibodies were not cross-reactive with Peptide I, serum from three patients was tested in bone marrow cultures (established from healthy human donors, as previously described [Verhelst D, et al. (2004) Lancet 363: 1768-71]). Culture conditions included 20% of either fetal calf serum as a control or one of the study patient's serum. Cultures included either 1 IU/mL of recombinant human EPO or 0.55 μg/mL of Peptide I (a concentration previously shown to be equivalent to 1 IU/mL of EPO for erythroid growth). Erythroid colonies were counted on day 7.

The conditions of data set [2]: in vivo; cited from earlier work.
Data set [3] has as its system anti-Peptide I antibodies. In words: Anti-Peptide I antibody assay (ELISA) in patient serum. Details: species or system human. The following applies: 10 patients, after up to 10 doses. How it is done:
as §1
Background: ELISA stands for enzyme-linked immunosorbent assay.

For data set [4], the system named is human, bone marrow derived CD34+ cells. The data set is described as follows: C/BFU-e assay (erythroid colonies). The following applies: Table 6, 14 days. Format: cell-based. How it is done:
EPO-R signaling stimulates the differentiation of bone marrow stem cells into proliferating red blood cell precursors. This assay measures the ability of test peptides to stimulate the proliferation and differentiation of red blood cell precursors from primary human bone marrow pluripotent stem cells.
For this assay, serial dilutions of test peptide are made in IMDM medium (Gibco) supplemented with 10% FBS (Hyclone). These serial dilutions, or positive control EPO peptide, are then added to methylcellulose to give a final volume of 1.5 mL. The methylcellulose and peptide mixture is then vortexed thoroughly. Aliquots (100,000 cells/mL) of human, bone marrow derived CD34+ cells (Poietics/Cambrex) are thawed. The thawed cells are gently added to 0.1 mL of 1 mg/ml DNAse (Stem Cells) in a 50 mL tube. Next, 40-50 mL IMDM medium is added gently to cells: the medium is added drop by drop along the side of the 50 mL tube for the first 10 mL, and then the remaining volume of medium is slowly dispensed along the side of the tube. The cells are then spun at 900 rpm for 20 min, and the media removed carefully by gentle aspiration. The cells are resuspended in 1 ml of IMDM medium and the cell density per mL is counted on hemacytometer slide (10 μL aliquot of cell suspension on slide, and cell density is the average count×10,000 cells/ml). The cells are then diluted in IMDM medium to a cell density of 15,000 cells/mL. A 100 μL of diluted cells is then added to each 1.5 mL methyl cellulose plus peptide sample (final cell concentration in assay media is 1000 cells/mL), and the mixture is vortexed. Allow the bubbles in the mixture to disappear, and then aspirate 1 mL using blunt-end needle. Add 0.25 mL aspirated mixture from each sample into each of 4 wells of a 24-well plate (Falcon brand). Incubate the plated mixtures at 37° C. under 5% CO2 in a humid incubator for 14 days. Score for the presence of erythroid colonies using a phase microscope (5×-10× objective, final magnification of 100×). The concentration of test peptide at which the number of formed colonies is 90% of maximum, relative to that observed with the EPO positive control, is recorded as the EC90 [See Table 2: C/BFU-e EC90].
For this assay, serial dilutions of test peptide are made in IMDM medium (Gibco) supplemented with 10% FBS (Hyclone). These serial dilutions, or positive control EPO peptide, are then added to methylcellulose to give a final volume of 1.5mL. The methylcellulose and peptide mixture is then vortexed thoroughly. […] The cells are resuspended in 1 ml of IMDM medium and the cell density per mL is counted on hemacytometer slide (10 μL aliquot of cell suspension on slide, and cell density is the average count×10,000 cells/ml). […]

“PEGylated homodimer of peptide monomers (AcG)GLYACHMGPIT(1-nal)VCQPLR(MeG)K (SEQ ID NO: 2), EPO-R agonist (Ac-GGLYACHMGPIT[1Nal]VCQPLR[Sar]K; disulfide 6-15 (inferred); not fully specified (residue 21); printed as (AcG)GLYACHMGPIT(1-nal)VCQPLR(MeG)K; also: PEGylated) [Peptide I]”: the “maintenance of hemoglobin levels” value with rat model of PRCA (anemic anti-EPO antibody-positive rats, repeat administrations every 4 weeks) is on record as “sustained correction of hemoglobin levels”. For the same substance, the reticulocytosis result in the data set with rat model of PRCA (anti-EPO antibody-positive anemic rats, compared to recombinant EPO treated rats) is recorded as “significantly increased”. The hemoglobin levels result in the data set on rat model of PRCA (anti-EPO positive animals versus antibody-negative control rats) is on record as “greater than hemoglobin levels achieved in the anti-EPO antibody-negative control rats”. Also, the “correction of antibody-induced anemia” value in the data set on rat model of PRCA (rat model of PRCA) was “corrected antibody-induced anemia; also recorded: reversed”. Further, the “erythroid growth in presence of patient serum” value in data set [1] (20% serum of three patients, 1 IU/mL EPO or 0.55 μg/mL Peptide I, colonies counted day 7) was “erythroid differentiation was observed”. Besides, the “concentration equivalent to 1 IU/mL of EPO for erythroid growth” value in data set [1] (previously shown) came out at 0.55 µg/mL. Besides, in data set [2], the clearance times result was “slow” and the half-life result is recorded as “prolonged”. In addition, the “anti-Peptide I antibodies in serum” value in data set [3] is given as “No anti-Peptide I antibodies were detected”. In data set [4], it took 3 nM to reach the 90% level (EC90).

What is called EC90 is the point of the concentration-response curve where the effect stands at 90%. A high value points to weaker potency.
